In patent US8309721B2, “HSP90 inhibitory carbazole derivatives, compositions containing same and use thereof” (Sanofi, priority 2008, dated 2012):

Each molecule was assayed on Her2 receptor expression at the surface of SKBr3 cells (assay: phenotypic SKBr3/HER2 cell test (Her2 surface expression by flow cytometry)). Details: Homo sapiens, SK-BR-3, 24 h incubation, inhibition of Her2 expression.
Format: cell-based
Protocol: The cellular activity of the compounds can in particular be evaluated by means of the phenotypic “SKBr3/HER2” cell test described below:
The SKBr3 […] adenocarcinoma cells, overexpressing the Her2 tyrosine kinase receptor, originate from the ATCC (HTB-30) and are cultured in McCoy's 5A medium supplemented with 10% FBS and 1% L-glutamine.
The cells are seeded in 12-well plates at a proportion of 125 000 cells per well in 1 ml of complete medium. The following day, the products are added at varying concentrations. After incubation for 24 h, the cells are trypsinized, washed with PBS and incubated with 100 ng of anti-Her2 antibody coupled to PE (Phycoerythrin) (BD 340552) for 30 minutes at 4° C. in the dark. The fluorescence due to the expression of the Her2 receptor at the surface of the cells is then read using a FACS Calibur flow cytometer (Becton-Dickinson). The percentage inhibition of Her2 expression as a function of the concentrations of product tested is fitted by the nonlinear regression technique (XLfit, equation 205) in order to measure an IC50 for each product.

IC50 [nM]	SMILES
1000 to 10000	COCCCOc1cc(-n2c3ccccc3c3c(-c4nc5ccc(F)cc5[nH]4)cccc32)ccc1C(N)=O [Example 60, 4-[4-(6-fluoro-1H-benzimidazol-2-yl)-9H-carbazol-9-yl]-2-(3-methoxypropoxy)benzamide]
< 1000	CN(C)CC(=O)O[C@H]1CC[C@H](Nc2cc(-n3c4ccccc4c4c(-c5nc6ccc(F)cc6[nH]5)cccc43)ccc2C(N)=O)CC1 [Example 140, dimethylaminoacetic acid 4-trans-{2-carbamoyl-5-[4(6-fluoro-1H-benzimidazol-2-yl)carbazol-9-yl]phenylamino}cyclohexyl ester]
< 1000	NC(=O)c1ncc(-n2c3ccccc3c3c(-c4nc5ccc(F)cc5[nH]4)cccc32)cc1NC1CCOCC1 [Example 136]
< 1000	Cn1cc(CNc2cc(-n3c4ccccc4c4c(-c5cnc6ccccc6c5)cccc43)ccc2C(N)=O)cn1 [Example 119, 2-[(1-methyl-1H-pyrazol-4-yl)methylamino]-4-[4-(quinolin-3-yl)-9H-carbazol-9-yl]benzamide]
< 1000	Cn1cc(CNc2cc(-n3c4ccccc4c4c(-c5nc6ccc(F)cc6[nH]5)cccc43)ccc2C(N)=O)cn1 [Example 115, 4-[4-(6-fluoro-1H-benzimidazol-2-yl)-9H-carbazol-9-yl]-2-[(1-methyl-1H-pyrazol-4-yl)methylamino]benzamide]
< 1000	NC(=O)c1ccc(-n2c3ccccc3c3c(-c4nc5ccc(F)cc5[nH]4)cccc32)cc1N[C@H]1CCC[C@H]1CO (racemic) [Example 118, 4-[4-(6-fluoro-1H-benzimidazol-2-yl)-9H-carbazol-9-yl]-2-[2(R,S)-hydroxymethylcyclopentan-1(S,R)-amino]benzamide]
< 1000	NC(=O)c1ccc(-n2c3ccccc3c3c(-c4nc5ccc(F)cc5[nH]4)cccc32)cc1NCC1(O)CCCC1 [Example 111, 4-[4-(6-fluoro-1H-benzimidazol-2-yl)-9H-carbazol-9-yl]-2-[(1-hydroxycyclopentan-1-yl)methylamino]benzamide]
< 1000	NC(=O)c1ccc(-n2c3ccccc3c3c(-c4nc5ccc(F)cc5[nH]4)cccc32)cc1NCC1(O)CC1 [Example 114, 4-[4-(6-fluoro-1H-benzimidazol-2-yl)-9H-carbazol-9-yl]-2-[(1-hydroxycyclopropan-1-yl)methylamino]benzamide]
< 1000	NC(=O)c1ccc(-n2c3ccccc3c3c(-c4cnc5ccccc5c4)cccc32)cc1NCc1ccccn1 [Example 86, 2-[(pyridin-2-ylmethyl)amino]-4-[4-(quinolin-3-yl)-9H-carbazol-9-yl]benzamide]
< 1000	CC1(C)CC(Nc2cc(-n3c4ccccc4c4c(-c5nc6ccc(F)cc6[nH]5)cccc43)ccc2C(N)=O)CC(C)(C)N1 [Example 83]
< 1000	NC(=O)c1ccc(-n2c3ccccc3c3c(-c4cnc5ccccc5c4)cccc32)cc1NCCF [Example 77, 2-(2-fluoroethylamino)-4-[4-(quinolin-3-yl)-9H-carbazol-9-yl]benzamide]
< 1000	NC(=O)c1ccc(-n2c3ccccc3c3c(-c4nc5ccc(F)cc5[nH]4)cccc32)cc1NCCn1ccnc1 [Example 82, 4-[4-(6-fluoro-1H-benzimidazol-2-yl)-9H-carbazol-9-yl]-2-[2-(1H-imidazol-1-yl]ethylamino]benzamide]

Continued, molecule first:

SMILES	IC50 [nM]
NC(=O)c1ccc(-n2c3ccccc3c3c(-c4cncc(O)c4)cccc32)cc1NCCCO [Example 141, 2-[(3-hydroxypropyl)amino]-4-[4-(5-hydroxypyridin-3-yl)-9H-carbazol-9-yl]benzamide]	< 1000
CC(C)(O)CCNc1cc(-n2c3ccccc3c3c(-c4ccc(C#N)nc4)cccc32)ccc1C(N)=O [Example 125, 4-[4-(6-cyanopyridin-3-yl)-9H-carbazol-9-yl]-2-[(3-hydroxy-3-methylbutyl)amino]benzamide]	< 1000
CC(C)(O)CNc1cc(-n2c3ccccc3c3c(-c4cnc5ccccc5c4)cccc32)cnc1C(N)=O [Example 139]	< 1000
NC(=O)c1ccc(-n2c3ccccc3c3c(-c4cnc5ccccc5c4)cccc32)cc1NCCc1ccccn1 [Example 80, 4-[4-(quinolin-3-yl)-9H-carbazol-9-yl]-2-[2-(pyridin-2-yl)ethylamino]benzamide]	< 1000
NC(=O)c1ccc(-n2c3ccccc3c3c(-c4cnc5ccccc5c4)cccc32)cc1NCCn1ccnc1 [Example 87, 2-[2-(1H-imidazol-1-yl)ethylamino]-4-[4-(quinolin-3-yl)-9H-carbazol-9-yl]benzamide]	< 1000
NC(=O)c1ncc(-n2c3ccccc3c3c(-c4cnc5ccccc5c4)cccc32)cc1NC1CCOCC1 [Example 116]	< 1000
NC(=O)c1ccc(-n2c3ccccc3c3c(-c4cnc5ccccc5c4)cccc32)cn1 [Example 78, 5-[4-(quinolin-3-yl)-9H-carbazol-9-yl]pyridin-2-amide]	1000 to 10000
NC(=O)c1ccc(-n2c3ccccc3c3c(-c4cnc5ccccc5c4)cccc32)cc1NC1CCCC(O)C1 [Example 109, 2-(3(R,S)-hydroxycyclohexyl-1(R,S)-amino)-4-[4-(quinolin-3-yl)-9H-carbazol-9-yl]benzamide]	< 1000
NC(=O)c1ccc(-n2c3ccccc3c3c(-c4cnc5ccccc5c4)cccc32)cc1N[C@H]1CCCC[C@@H]1CO (racemic) [Example 100, 2-[1(R,S),2(R,S)-2-hydroxymethyl-cyclohexyl-1-amino]-4-[4-(quinolin-3-2-yl)-9H-carbazol-9-yl]benzamide]	< 1000
N#Cc1ccc(-c2cccc3c2c2ccccc2n3-c2ccc(C(N)=O)c(NCCF)c2)cn1 [Example 134, 4-[4-(6-cyanopyridin-3-yl)-9H-carbazol-9-yl]-2-[(2-fluoroethyl)amino]benzamide]	< 1000
NC(=O)c1ccc(-n2c3ccccc3c3c(-c4cnc5ccccc5c4)cccc32)cc1NCC1(O)CC1 [Example 121, 4-[4-(quinolin-3-yl)-9H-carbazol-9-yl]-2-[(1-hydroxycyclopropan-1-yl)methylamino]benzamide]	< 1000
CN1CCC(O)(CNc2cc(-n3c4ccccc4c4c(-c5cnc6ccccc6c5)cccc43)ccc2C(N)=O)CC1 [Example 103, 2-[(4-hydroxy-1-methylpiperidin-4-ylmethyl)-amino]-[4-(quinolin-3-yl)-9H-carbazol-9-yl]benzamide]	< 1000
CC1(C)CC(Nc2cc(-n3c4ccccc4c4c(-c5cnc6ccccc6c5)cccc43)ccc2C(N)=O)CC(C)(C)N1 [Example 84, 4-[4-(quinolin-3-yl)-9H-carbazol-9-yl]-2-(2,2,6,6-tetramethyl-1H-piperidin-4-ylamino]benzamide]	< 1000
CN1C(C)(C)CC(Nc2cc(-n3c4ccccc4c4c(-c5cnc6ccccc6c5)cccc43)ccc2C(N)=O)CC1(C)C [Example 88, (1,2,2,6,6-pentamethyl-1H-piperidin-4-ylamino]-4-[4-(quinolin-3-yl)-9H-carbazol-9-yl]-2-benzamide]	< 1000
NC(=O)c1ccc(-n2c3ccccc3c3c(-c4cnc5ccccc5c4)cccc32)cc1N[C@H]1CN2CCC1CC2 [Example 108, 2-((R)-(1-azabicyclo[2.2.2]oct-3-yl)amino)-4-[4-(quinolin-3-yl)-9H-carbazol-9-yl]benzamide]	< 1000
